Holding throughout (type): biochemical
One test concerns the target T1, human GST-DYRK1A (Homo sapiens, UniProt Q13627).
T1 construct: purified human GST-DYRK1A (full length, Thermo Scientifics) enzyme; purchased Thermo Scientifics
Kind of test: GST-DYRK1A enzyme inhibition, ADP-Glo kinase assay. The following applies: ATP 10 μM, GST-DYRK1A full length, read-out: DYRK1 IC50. The method in brief: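 Full-length enzyme (10 ng) was incubated with 10 μM ATP and a specific substrate for 1 h at 25 °C in 40 mM Tris-HCl pH 7.4, 20 mM MgCl2, 0.5 mg/mL BSA, 50 μM DTT. Luminescence was read against a solvent control, and IC50 values were derived from 3 data sets.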
In general terms: ADP-Glo first removes unused ATP, then detects ADP through luciferase.

A further test addresses T2, human GST-CLK1 (Homo sapiens, UniProt P49759).
T2 construct: purified human GST-CLK1 (129-end, SignalChem) enzyme; purchased SignalChem
Description: GST-CLK1 enzyme inhibition, ADP-Glo kinase assay. As to conditions: ATP 10 μM, GST-CLK1 129-end. The method, boiled down: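 ADP-Glo luminescence read-out, relative to untreated solvent control, gave IC50 (nM) from triplicate data sets. Reactions ran an hour at 25° C with 3 ng GST-CLK1 (residues 129-end), 10 μM ATP and specific substrate in Tris-HCl pH 7.4 buffer with MgCl2, BSA and DTT.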

The target of another test is LRRK2 (G2019S) (Homo sapiens, UniProt Q5S007, G2019S). Kind of test: LRRK2 G2019S enzyme inhibition, ADP-Glo kinase assay. Also noted: purchased SignalChem L10-12GG. The following applies: ATP 25 μM. As for the experimental part:
To evaluate an inhibitory activity of the compound according to the present invention against LRRK2, LRRK2 (G2019S), DYRK1, CLK1, and TTK kinases, experiments were performed as follows.
Each of the Example compounds was reacted with a purified human LRRK2 G2019S (L10-12GG, SignalChem) enzyme to evaluate an ability to inhibit an enzyme using a method as described below. A composition of 40 mM Tris-HCl (pH 7.4), 20 mM MgCl2, 0.5 mg/mL BSA, and 50 μM DTT was used as a reaction buffer, and all reactions of test substances were performed in the reaction buffer. Each of the compounds was diluted […] from a 10 mM DMSO stock using a serial dilution method, and enzyme activities were measured at final compound concentrations of 50, 10, 2, 0.4, 0.08, 0.016, 0.0032, 0.00064, 0.000128, 0.0000256, 0.00000512, and 0.000001024 μM. In the test, purified ATP (25 μM) and an enzyme substrate (0.2 μg) were reacted with a human LRRK2 G2019S (16 ng) enzyme at 25° C. for 2 hours, and the enzyme activities were then determined using an in vitro ADP-Glo™ kinase assay (Promega). An enzyme-activity reaction solution, an ADP-Glo reaction solution, and an enzyme-ability detection solution were reacted at a ratio of 2:2:1 to measure a degree of inhibition of the enzyme activity with luminescence. The degree of inhibition of the enzyme activity according to the treatment concentration of each of the compounds was calculated based on the fluorescence of the enzyme activity of the solvent control which was not treated with the compound. In this case, the concentration of each of the compounds inhibiting 50% of the enzyme activity was determined to be an IC50 (nM) value, and calculated using Prism (Version 5.01; GraphPad) software.

Bounds are passed on as bounds.

LRRK2 (G2019S), sequence (Q5S007 970-2527 G2019S limits assumed): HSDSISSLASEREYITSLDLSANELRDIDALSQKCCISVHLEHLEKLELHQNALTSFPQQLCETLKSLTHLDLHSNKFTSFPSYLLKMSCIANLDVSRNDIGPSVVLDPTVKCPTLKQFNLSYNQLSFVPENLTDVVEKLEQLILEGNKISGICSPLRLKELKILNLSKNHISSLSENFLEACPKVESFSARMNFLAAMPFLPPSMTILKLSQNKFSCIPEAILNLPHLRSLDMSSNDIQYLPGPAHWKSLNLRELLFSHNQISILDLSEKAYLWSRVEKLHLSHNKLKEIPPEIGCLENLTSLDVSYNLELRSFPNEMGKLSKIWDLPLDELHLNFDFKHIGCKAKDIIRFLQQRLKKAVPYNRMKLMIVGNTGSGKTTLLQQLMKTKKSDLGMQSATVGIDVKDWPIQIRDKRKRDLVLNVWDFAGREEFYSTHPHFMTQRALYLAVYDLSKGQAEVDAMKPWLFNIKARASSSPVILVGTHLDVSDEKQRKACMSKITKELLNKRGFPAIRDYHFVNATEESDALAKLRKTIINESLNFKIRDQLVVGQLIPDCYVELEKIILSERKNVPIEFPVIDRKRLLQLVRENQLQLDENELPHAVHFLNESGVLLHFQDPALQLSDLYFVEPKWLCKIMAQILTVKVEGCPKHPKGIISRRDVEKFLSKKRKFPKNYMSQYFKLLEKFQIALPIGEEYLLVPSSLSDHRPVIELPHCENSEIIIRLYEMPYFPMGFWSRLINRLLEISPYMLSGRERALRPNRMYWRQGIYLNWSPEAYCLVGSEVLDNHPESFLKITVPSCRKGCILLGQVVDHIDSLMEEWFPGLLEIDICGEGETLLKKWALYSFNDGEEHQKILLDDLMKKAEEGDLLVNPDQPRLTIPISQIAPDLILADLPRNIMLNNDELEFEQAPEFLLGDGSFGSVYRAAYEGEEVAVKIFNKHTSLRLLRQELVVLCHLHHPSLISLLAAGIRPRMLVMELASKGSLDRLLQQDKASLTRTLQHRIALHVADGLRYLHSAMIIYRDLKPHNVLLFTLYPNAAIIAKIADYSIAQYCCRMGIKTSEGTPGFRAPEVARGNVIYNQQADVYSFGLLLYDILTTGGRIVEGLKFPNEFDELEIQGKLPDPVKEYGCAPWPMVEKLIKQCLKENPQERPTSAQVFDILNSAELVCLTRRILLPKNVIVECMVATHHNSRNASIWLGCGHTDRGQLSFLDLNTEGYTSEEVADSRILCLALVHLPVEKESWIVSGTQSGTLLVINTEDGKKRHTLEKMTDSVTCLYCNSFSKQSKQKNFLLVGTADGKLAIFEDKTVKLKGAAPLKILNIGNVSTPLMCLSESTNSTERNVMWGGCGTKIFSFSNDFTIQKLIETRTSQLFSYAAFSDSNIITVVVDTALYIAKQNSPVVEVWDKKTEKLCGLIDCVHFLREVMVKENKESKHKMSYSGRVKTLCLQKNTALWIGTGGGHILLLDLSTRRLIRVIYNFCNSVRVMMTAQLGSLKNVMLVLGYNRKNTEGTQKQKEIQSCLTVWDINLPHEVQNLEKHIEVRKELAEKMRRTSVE
T2 sequence (P49759 129-484 limits assumed): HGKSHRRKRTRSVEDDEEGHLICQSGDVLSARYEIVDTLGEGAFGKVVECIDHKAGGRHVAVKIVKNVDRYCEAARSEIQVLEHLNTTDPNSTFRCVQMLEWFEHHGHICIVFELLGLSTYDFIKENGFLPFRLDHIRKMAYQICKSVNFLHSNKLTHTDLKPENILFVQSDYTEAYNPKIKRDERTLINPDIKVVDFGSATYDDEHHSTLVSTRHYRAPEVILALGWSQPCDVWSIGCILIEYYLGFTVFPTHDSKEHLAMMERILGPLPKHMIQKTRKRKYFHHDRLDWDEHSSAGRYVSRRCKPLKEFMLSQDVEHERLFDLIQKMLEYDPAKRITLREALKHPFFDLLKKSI

Broadly, the IC50 is the concentration needed to halve the response being measured. `COc1cc(S(C)(=O)=O)ccc1Nc1nc(NC(C)C)c2cc[nH]c2n1` [Example 14, N^4-isopropyl-N^2-(2-methoxy-4-(methylsulfonyl)phenyl)-7H-pyrrolo[2,3-d]pyrimidine-2,4-diamine 2,2,2-trifluoroacetate]: the IC50 at human GST-DYRK1A is 301 to 1000 nM; against human GST-CLK1, 301 to 1000 nM; against LRRK2 (G2019S) it was less than 100 nM.

With `CCCCNc1nc(Nc2ccc(P(C)(C)=O)cc2OC)nc2[nH]cc(C(F)(F)F)c12` [Example 393, (4-((4-(butylamino)-5-(trifluoromethyl)-7H-pyrrolo[2,3-d]pyrimidin-2-yl)amino)-3-methoxyphenyl) dimethyl-phosphine oxide], the values for the IC50 on human GST-DYRK1A, at human GST-CLK1 and against LRRK2 (G2019S) were 301 to 1000 nM, 301 to 1000 nM and less than 100 nM, respectively.

On to `O=C(c1ccc(Nc2nc(NC3CCCC3)c3c(C(F)(F)F)c[nH]c3n2)c2c1CCO2)N1CCC(N2CCOCC2)CC1` [Example 459, (7-((4-(cyclo-pentylamino)-5-(trifluoromethyl)-7H-pyrrolo[2,3-d]pyrimidin-2-yl)amino)-2,3-dihydrobenzo-furan-4-yl)(4-morpho-linopiperidin-1-yl)methanone], for which the half-inhibitory concentration (IC50) on human GST-DYRK1A was 301 to 1000 nM; against human GST-CLK1 it was 301 to 1000 nM; on LRRK2 (G2019S), less than 100 nM.

On to `COc1cc(S(=O)(=O)N2CCOCC2)ccc1Nc1nc(NCC(C)C)c2cc[nH]c2n1` [Example 10, N^4-isobutyl-N^2-(2-methoxy-4-(morpholinosulfonyl)phenyl)-7H-pyrrolo[2,3-d]pyrimidine-2,4-diamine], for which the IC50 on human GST-DYRK1A is 301 to 1000 nM; at human GST-CLK1, 301 to 1000 nM; at LRRK2 (G2019S) it was less than 100 nM.

As to `COc1cc(S(C)(=O)=O)ccc1Nc1nc(NC2CCC2)c2cc[nH]c2n1` [Example 24, N^4-cyclobutyl-N^2-(2-methoxy-4-(methylsulfonyl)phenyl)-7H-pyrrolo[2,3-d]pyrimidine-2,4-diamine], the results for the IC50 at human GST-DYRK1A, against human GST-CLK1 and on LRRK2 (G2019S) were 301 to 1000 nM, 301 to 1000 nM and less than 100 nM, respectively.

For the molecule `COCC(C)(C)Nc1nc(Nc2ccc(S(=O)(=O)N3CCOCC3)cc2OC)nc2[nH]ccc12` [Example 34, N^4-(1-methoxy-2-methylpropan-2-yl)-N^2-(2-methoxy-4-(morpholinosulfonyl)phenyl)-7H-pyrrolo[2,3-d]pyrimidine-2,4-diamine], the IC50 at human GST-DYRK1A is 301 to 1000 nM; against human GST-CLK1 it was 301 to 1000 nM; at LRRK2 (G2019S) it was less than 100 nM.

Turning to `O=C(c1ccc(Nc2nc(NC3CCOCC3)c3cc[nH]c3n2)c2c1OCCO2)N1CCOCC1` [Example 52, morpholino(8-((4-((tetrahydro-2H-pyran-4-yl)amino)-7H-pyrrolo[2,3-d]pyrimidin-2-yl)amino)-2,3-dihydrobenzo[b][1,4]dioxin-5-yl)methanone 2,2,2-trifluoroacetate], the IC50 at human GST-DYRK1A is 301 to 1000 nM; on human GST-CLK1, 301 to 1000 nM; against LRRK2 (G2019S), less than 100 nM.

Turning to `COc1cc(P2(=O)CCN(C3CC3)CC2)ccc1Nc1nc(N[C@H]2CCOC2)c2c(C(F)(F)F)c[nH]c2n1` [Example 417, (S)-1-cyclo-propyl-4-(3-methoxy-4-((4-((tetrahydrofuran-3-yl)amino)-5-(trifluoromethyl)-7H-pyrrolo[2,3-d]pyrimidin-2-yl)amino)phenyl)-1,4-azaphosphinane 4-oxide], the 50% inhibitory concentration (IC50) at human GST-DYRK1A is 301 to 1000 nM; against human GST-CLK1, less than 100 nM; against LRRK2 (G2019S) it was less than 100 nM.

With `COc1cc(P(C)(C)=O)ccc1Nc1nc(N[C@@H]2CCOC2)c2c(C(F)(F)F)c[nH]c2n1` [Example 388, (R)-(3-methoxy-4-((4-((tetrahydrofuran-3-yl)amino)-5-(trifluoromethyl)-7H-pyrrolo[2,3-d]pyrimidin-2-yl)amino)phenyl)di-methylphosphine oxide], the half-maximal inhibitory concentration (IC50) at human GST-DYRK1A, against human GST-CLK1 and at LRRK2 (G2019S) was less than 100 nM throughout.

In the case of `COc1cc(P(C)(C)=O)ccc1Nc1nc(NC2CCCC2)c2c(C(F)(F)F)c[nH]c2n1` [Example 387, (4-((4-(cyclo-pentylamino)-5-(trifluoromethyl)-7H-pyrrolo[2,3-d]pyrimidin-2-yl)amino)-3-methoxy-phenyl)di-methylphosphine oxide], the concentration for half-maximal inhibition (IC50) on human GST-DYRK1A was 301 to 1000 nM; against human GST-CLK1 it was 301 to 1000 nM; against LRRK2 (G2019S) it was less than 100 nM.

For the molecule `O=C(c1ccc(Nc2nc(NCC3CC3)c3cc[nH]c3n2)c2c1OCCO2)N1CCOCC1` [Example 53, (8-((4-((cyclopropylmethyl)amino)-7H-pyrrolo[2,3-d]pyrimidin-2-yl)amino)-2,3-dihydrobenzo[b][1,4]dioxin-5-yl)(morpholino)methanone], the IC50 at human GST-DYRK1A is 301 to 1000 nM; against human GST-CLK1 it was 301 to 1000 nM; at LRRK2 (G2019S), less than 100 nM.

In the case of `COc1cc(P(C)(C)=O)ccc1Nc1nc(NCC2CC2)c2c(C(F)(F)F)c[nH]c2n1` [Example 390, (4-((4-((cyclo-propylmeth-yl)amino)-5-(trifluoromethyl)-7H-pyrrolo[2,3-d]pyrimidin-2-yl)amino)-3-methoxyphenyl) dimethyl-phosphine oxide], the concentration for half-maximal inhibition (IC50) at human GST-DYRK1A is 301 to 1000 nM; against human GST-CLK1, less than 100 nM; against LRRK2 (G2019S), less than 100 nM.

Regarding `COc1cc(P2(=O)CCN(C3CC3)CC2)ccc1Nc1nc(NC2CCC2)c2c(C(F)(F)F)c[nH]c2n1` [Example 406], the IC50 lay in the range of 301 to 1000 nM on human GST-DYRK1A, 101 to 300 nM against human GST-CLK1 and 101 to 300 nM against LRRK2 (G2019S).

In the case of `COc1cc(S(C)(=O)=O)ccc1Nc1nc(NC2CCOCC2)c2cc[nH]c2n1` [Example 30, N^2-(2-methoxy-4-(methylsulfonyl)phenyl)-N^4-(tetrahydro-2H-pyran-4-yl)-7H-pyrrolo[2,3-d]pyrimidine-2,4-diamine 2,2,2-trifluoroacetate], the results for the IC50 at human GST-DYRK1A, at human GST-CLK1 and against LRRK2 (G2019S) were 301 to 1000 nM, 301 to 1000 nM and less than 100 nM, respectively.

On to `COc1cc(S(C)(=O)=O)ccc1Nc1nc(NCC2CC2)c2c(C#N)c[nH]c2n1` [Example 110, 4-((cyclopropylmethyl)amino)-2-((2-methoxy-4-(methylsulfonyl)phenyl)amino)-7H-pyrrolo[2,3-d]pyrimidine-5-carbonitrile], for which the IC50 is 301 to 1000 nM on human GST-DYRK1A, 301 to 1000 nM on human GST-CLK1 and less than 100 nM at LRRK2 (G2019S).

On to `O=C(c1ccc(Nc2nc(N[C@H]3CCOC3)c3c(C(F)(F)F)c[nH]c3n2)c2c1CCO2)N1CCOCC1` [Example 455], for which the 50% inhibitory concentration (IC50) on human GST-DYRK1A, against human GST-CLK1 and at LRRK2 (G2019S) was less than 100 nM throughout.

Regarding `COc1cc(P2(=O)CCN(C3CC3)CC2)ccc1Nc1nc(NC2CCOCC2)c2c(C(F)(F)F)c[nH]c2n1` [Example 419, 1-cyclopropyl-4-(3-methoxy-4-((4-((tetrahydro-2H-pyran-4-yl)amino)-5-(trifluoro)-7H-pyrrolo[2,3-d]pyrimidin-2-yl)amino)phenyl)-1,4-azaphosphinane 4-oxide], the IC50 at human GST-DYRK1A is 301 to 1000 nM; at human GST-CLK1, less than 100 nM; on LRRK2 (G2019S), less than 100 nM.

For the molecule `O=C(c1ccc(Nc2nc(NCC3CCCC3)c3c(C(F)(F)F)c[nH]c3n2)c2c1CCO2)N1CCOCC1` [Example 463, (7-((4-((cyclo-pentylmeth-yl)amino)-5-(trifluoromethyl)-7H-pyrrolo[2,3-d]pyrimidin-2-yl)amino)-2,3-dihydrobenzo-furan-4-yl) (morpholino) methanone], the IC50 at human GST-DYRK1A, at human GST-CLK1 and on LRRK2 (G2019S) was 301 to 1000 nM in each case.

Consider `COc1cc(S(=O)(=O)N2CCC(N3CCOCC3)CC2)ccc1Nc1nc(NC2CCC2)c2cc[nH]c2n1` [Example 23, N^4-cyclobutyl-N^2-(2-methoxy-4-((4-morpholinopiperidin-1-yl)sulfonyl)phenyl)-7H-pyrrolo[2,3-d]pyrimidine-2,4-diamine 2,2,2-trifluoroacetate], for which the 50% inhibitory concentration (IC50) at human GST-DYRK1A is 301 to 1000 nM; against human GST-CLK1, 301 to 1000 nM; at LRRK2 (G2019S) it was less than 100 nM.

As for `COc1cc(S(C)(=O)=O)ccc1Nc1nc(NC2CCCC2)c2cc[nH]c2n1` [Example 1, N^4-cyclopentyl-N^2-(2-methoxy-4-(methylsulfonyl)phenyl)-7H-pyrrolo[2,3-d]pyrimidine-2,4-diamine], the half-maximal inhibitory concentration (IC50) at human GST-DYRK1A is 301 to 1000 nM; against human GST-CLK1, 301 to 1000 nM; at LRRK2 (G2019S) it was less than 100 nM.

The record behind these values is patent publication US20230066011A1, “PYRROLOPYRIMIDINE DERIVATIVE, AND PHARMACEUTICAL COMPOSITION FOR PREVENTING OR TREATING PROTEIN KINASE-RELATED DISEASE COMPRISING SAME AS ACTIVE INGREDIENT” (VORONOI CO., LTD., priority 2019, published 2023).
